# Source: patent US10557118B2, “Compositions and methods for prevention or treatment of neoplastic disease in a mammalian subject” (The Government of the USA, as represented by the Secretary, …, priority 2006, dated 2020)
# How the values were obtained:
# [1] = tested on: RCC reactive SAUJ T-cell clone; assay: ELISA of IFN-gamma production by RCC reactive CTL co-cultured with peptide-pulsed COS7-A11 cells; format: cell-based, human
# Description: COS7-A11 cells were pulsed with varying concentrations of each peptide then screened for their ability to induce IFN-gamma production by RCC reactive CTL. The 10 mer Pep-A104-K133 (ATFLGSLTWK) (SEQ ID NO: 1) induced dose dependent IFN-gamma production first evident in the 1 nM concentration range consistent with this peptide being the antigenic HLA-A11 restricted antigen recognized by the RCC reactive SAUJ T-cell clone.
# Cultured T-cell lines or T cell clones were added to target cells in round-bottom 96-well plates. After 24 hours co culture at 37° C., 50 μL of supernatants was collected to measure IFN-g or GM-CSF secretion by ELISA (ENDOGEN, Woburn, Mass.) in duplicate assays. The concentration of reagents and the ELISA procedure recommended by ENDOGEN was followed without deviation. Absorbance was detected at 450 nm using an ELISA reader (VICTOR3 Multilabel counter; Perkin Elmer, Wellesley, Mass.) and data were calculated based on the standard curve generated from commercial recombinant human IFN-g or GM-CSF standards (ENDOGEN).
# A total of 8 peptides (three 9-mers and five 10-mers) from the common sequence of CT-RCC 8 and CT-RCC 9 were synthesized and purchased from Genemed Synthesis, Inc. The identity and purity of each of the peptides were confirmed by mass spectrometer and high-performance liquid chromatography analysis. […]
# HLA A-11 = assay: Binding of epitope to HLA A-11; parameters: species or system human; conditions: compared with the other epitopes
sequence,measurement,setting,value
"ATFLGSLTWK [Pep-A104-K133, HLA-A11-restricted 10-mer peptide from the common region of CT-RCC 8 and CT-RCC 9]",concentration range at which dose dependent IFN-gamma production is first evident,"[1]; COS7-A11 cells pulsed with varying peptide concentrations (0.1 to 10000 nM), SAUJ-CTL clone BZ-4",~1 nM
same,level of IFN-γ secretion by human T cells,[1]; compared with the other epitopes,highest level of IFN-γ secretion
same,level of binding the HLA A-11,HLA A-11,highest level of binding
